# In publication PMC3262007, “A Fluorescence-Based High-Throughput Assay for the Discovery of Exchange Protein Directly Activated by Cyclic AMP (EPAC) Antagonists” (PLoS ONE, 2012):
# Experiments:
# EPAC2 [1] = molecular target: T1, EPAC2 (Mus musculus, UniProt Q9EQZ6); assay: 8-NBD-cAMP competition / primary screen fluorescence assay; type: binding; conditions: for dose response of EPAC2/8-NBD-cAMP fluorescence signal: dose-dependent response, Figure 2; for IC50: competition with 8-NBD-cAMP in binding to EPAC2
# T1 construct: when titrated with purified full-length EPAC2; made in house
# T1 sequence (Q9EQZ6 1-993 isoform Q9EQZ6-3): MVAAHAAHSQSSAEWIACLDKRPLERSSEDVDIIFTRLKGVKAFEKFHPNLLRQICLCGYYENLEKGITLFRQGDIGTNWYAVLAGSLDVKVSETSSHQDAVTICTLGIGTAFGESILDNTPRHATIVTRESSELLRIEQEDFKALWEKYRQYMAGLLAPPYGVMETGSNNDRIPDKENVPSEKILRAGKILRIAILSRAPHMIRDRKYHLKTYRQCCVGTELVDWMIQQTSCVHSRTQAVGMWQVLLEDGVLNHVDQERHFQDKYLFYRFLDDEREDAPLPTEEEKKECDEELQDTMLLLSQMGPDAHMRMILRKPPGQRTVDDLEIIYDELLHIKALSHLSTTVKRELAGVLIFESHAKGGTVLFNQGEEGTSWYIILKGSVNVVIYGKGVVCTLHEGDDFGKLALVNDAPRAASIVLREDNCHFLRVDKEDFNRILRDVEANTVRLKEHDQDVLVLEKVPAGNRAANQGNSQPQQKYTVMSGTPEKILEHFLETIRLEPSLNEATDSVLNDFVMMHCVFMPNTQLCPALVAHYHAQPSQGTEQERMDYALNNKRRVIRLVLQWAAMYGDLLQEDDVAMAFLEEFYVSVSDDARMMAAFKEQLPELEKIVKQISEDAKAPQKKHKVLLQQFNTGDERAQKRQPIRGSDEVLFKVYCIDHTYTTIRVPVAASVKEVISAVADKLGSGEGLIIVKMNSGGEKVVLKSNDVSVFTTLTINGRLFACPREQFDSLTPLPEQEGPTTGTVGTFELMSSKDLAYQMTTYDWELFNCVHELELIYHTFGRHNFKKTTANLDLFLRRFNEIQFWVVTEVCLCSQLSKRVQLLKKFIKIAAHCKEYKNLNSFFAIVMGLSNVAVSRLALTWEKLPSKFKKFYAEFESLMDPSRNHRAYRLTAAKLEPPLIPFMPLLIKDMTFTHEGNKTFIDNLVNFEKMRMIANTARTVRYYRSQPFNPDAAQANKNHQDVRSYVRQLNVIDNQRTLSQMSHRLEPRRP
# Procedure: Primary screen of NCI DTP (Developmental Therapeutics Program) diversity set library was performed in black 96-well microplates from Corning Costar (Cambridge, MA, USA). Briefly, 50 nM EPAC2 solution was prepared in 20 mM Tris buffer, pH 7.5, containing 150 mM NaCl, 1 mM EDTA and 1 mM […]. […] Test compounds were added from 10 mM stock solutions in DMSO. […] Fluorescence intensity signal from 8-NBD probe was recorded at room temperature before and after tested compounds were added using SpectaMaxM2 microplate reader (Molecular Devices, Silicon Valley, CA, USA) with excitation/emission wavelengths set at 470/540 nm.
# EPAC = conditions: cited from earlier work
# type II PKA holoenzyme = molecular target: T2, type II PKA holoenzyme (Homo sapiens, UniProt P31323); assay: Type II PKA holoenzyme kinase activity (counter screening assay); type: biochemical; conditions: 25 µM compound, 0.1 mM cAMP
# T2 construct: made in house; host or cells: E. coli
# T2 sequence (P31323 whole entry): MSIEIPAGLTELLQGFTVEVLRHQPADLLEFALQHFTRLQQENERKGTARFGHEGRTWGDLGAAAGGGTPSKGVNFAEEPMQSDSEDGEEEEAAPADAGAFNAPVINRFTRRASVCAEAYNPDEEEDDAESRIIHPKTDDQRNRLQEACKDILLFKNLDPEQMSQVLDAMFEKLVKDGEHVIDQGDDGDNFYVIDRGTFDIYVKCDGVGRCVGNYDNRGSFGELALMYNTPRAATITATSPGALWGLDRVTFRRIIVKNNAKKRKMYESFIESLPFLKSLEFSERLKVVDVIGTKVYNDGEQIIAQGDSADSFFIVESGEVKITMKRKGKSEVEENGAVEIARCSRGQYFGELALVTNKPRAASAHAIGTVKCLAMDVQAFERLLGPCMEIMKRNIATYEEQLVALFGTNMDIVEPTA
# Procedure: (§1) Kinase activities of the type I and II PKA holoenzymes were measured spectrophotometrically in a 96-well plate with a coupled enzyme assay as described previously. In this assay, the formation of the ADP is coupled to the oxidation of NADH by the pyruvate kinase/lactate dehydrogenase reactions so the reaction rate can be determined by following the oxidation of NADH, reflected by a decrease in absorbance at 340 nm. […] Reactions were pre-equilibrated at room temperature and initiated by adding the Kemptide substrate (final concentration 0.26 mM). PKA activities measured in the presence of 25 µM H89, a selective PKA inhibitor, were used as positive controls of PKA inhibition.
# type I PKA holoenzyme = molecular target: T3, type I PKA holoenzyme (Homo sapiens, UniProt P10644); assay: Type I PKA holoenzyme kinase activity (counter screening assay); type: biochemical; conditions: 25 µM compound, 0.1 mM cAMP
# T3 construct: made in house; host or cells: E. coli
# T3 sequence (P10644 whole entry): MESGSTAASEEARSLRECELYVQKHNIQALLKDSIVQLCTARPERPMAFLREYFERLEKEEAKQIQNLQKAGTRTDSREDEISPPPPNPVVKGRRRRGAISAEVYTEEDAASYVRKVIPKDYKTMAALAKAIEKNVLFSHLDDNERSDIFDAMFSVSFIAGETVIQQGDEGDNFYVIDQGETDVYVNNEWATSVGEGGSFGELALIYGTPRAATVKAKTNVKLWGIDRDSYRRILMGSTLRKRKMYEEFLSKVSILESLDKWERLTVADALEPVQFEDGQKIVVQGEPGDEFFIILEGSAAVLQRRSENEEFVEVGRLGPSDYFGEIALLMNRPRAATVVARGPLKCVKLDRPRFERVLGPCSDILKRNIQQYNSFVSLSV
# Procedure: as §1
# EPAC2 [2] = molecular target: T1, EPAC2; assay: EPAC2 GEF activity, Rap1 nucleotide exchange (secondary confirmation assay); type: biochemical; conditions: 25 µM compound in the presence of 25 µM cAMP
# Procedure: Measurement of in vitro guanine nucleotide exchange factor (GEF) activity of EPAC was adapted from a well known fluorescence-based assay using a fluorescent guanine nucleotide analog, and used as a functional confirmation assay for the compounds identified from primary screen. […] Exchange of Mant-GDP by GDP was measured as a decrease in fluorescence intensity over time using a FluoroMax-3 spectrofluorometer with excitation/emission wavelengths set at 366/450 nm. Typically, decay in the fluorescence intensity was recorded over a time course of 6000 s with data points taken every 60 s.
Structure (SMILES),dose response of EPAC2/8-NBD-cAMP fluorescence signal (EPAC2 [1]),IC50 (EPAC2 [1]),inhibition of cAMP-mediated EPAC2 GEF activity (EPAC2 [2]),also measured
"Nc1ncnc2c1ncn2C1CC2OP(=O)(O)OCC2O1 (stereo not shown) [2′-deoxy-cAMP, reference compound]",minimal effects,–,–,–
"CO[C@@H]1[C@@H]2OP(=O)(O)OC[C@H]2O[C@H]1n1c(Sc2ccc(Cl)cc2)nc2c(N)ncnc21 [8-CPT-2′-O-Me-cAMP, 8-(4-chloro-phenylthio)-2′-O-methyladenosine-3′,5′-cyclic monophosphate]",–,–,–,selectivity towards EPAC over PKA (EPAC): about 100 fold
"Nc1ncnc2c1nc(Cl)n2[C@@H]1O[C@@H]2COP(=O)(O)O[C@H]2[C@H]1O [8-Cl-cAMP, reference compound]",significant dose-dependent inhibitions,–,–,–
O=C1C=Cc2ccccc2C1=NNc1cccc2cc(S(=O)(=O)O)ccc12 [NSC45576],–,1.7 µM,inhibit EPAC2 GEF activity to basal levels,effect on cAMP-induced type II PKA holoenzyme activation (type II PKA holoenzyme): did not significantly alter; effect on cAMP-induced type I PKA holoenzyme activation (type I PKA holoenzyme): did not significantly alter
O=C1C=CC2=C(Oc3c(ccc(O)c3O)/C2=C/C=C(O)O)C1=O [NSC119911],–,3.8 µM,inhibit EPAC2 GEF activity to basal levels,type II PKA activity blocked (type II PKA holoenzyme): ~50%; type I PKA activity blocked (type I PKA holoenzyme): ~50%
N#Cc1c(NC(=O)C(F)(F)F)sc2c3c(=O)c4ccccc4c(=O)c=3oc3ccccc3c12 [NSC686365],–,7.9 µM,inhibit EPAC2 GEF activity to basal levels,effect on cAMP-induced type II PKA holoenzyme activation (type II PKA holoenzyme): did not significantly alter; effect on cAMP-induced type I PKA holoenzyme activation (type I PKA holoenzyme): did not significantly alter
"O=c1[nH]c(=O)c2ncn(C3OC4COP(=O)(O)OC4C3O)c2[nH]1 (stereo not shown) [cXMP, reference compound]",minimal effects,–,–,–
